Laboratory results from patent publication US8551984B2, “Aminopyrimidines as SYK inhibitors” (Merck Sharp & Dohme Corp., priority 2009, dated 2013).

Biological target: recombinant human SYK (GST-hSYK fusion protein) (Homo sapiens, UniProt P43405)
Test: biochemical
Settings: rhSYK Activity, Table 113A
Source text: Homogeneous Time-Resolved Fluorescence (HTRF) Assay for the Recombinant Human SYK Enzyme:

Compound | IC50
Cc1cc(Nc2nccc(C3CC3)n2)cc(-c2cnc(C3(O)CCC(C(=O)O)C(C)(C)C3)s2)c1 (centres unmarked) [Example 113A-51] | < 100 nM
Cc1cc(Nc2nccc(C(C)C)n2)cc(-c2cnc(C3(O)CCC(C(=O)O)C(C)(C)C3)s2)c1 (centres unmarked) [Example 113A-52] | < 100 nM
CCc1ccnc(Nc2cc(C)cc(-c3cnc([C@@]4(O)CC[C@H](C(=O)OC)C(C)(C)C4)s3)c2)n1 [Example 113A-53] | < 100 nM
COC(=O)[C@H]1CC[C@](O)(c2ncc(-c3cc(C)cc(Nc4nccc(OC)n4)c3)s2)CC1(C)C [Example 113A-54] | < 100 nM
COC(=O)[C@@H]1CC[C@@](O)(c2ncc(-c3cc(C)cc(Nc4nccc(OC)n4)c3)s2)CC1(C)C [Example 113A-55] | < 100 nM
COC(=O)C1CCC(O)(c2ncc(-c3cc(C)cc(Nc4nccc(C5CC5)n4)c3)s2)CC1(C)C (centres unmarked) [Example 113A-56] | < 100 nM
Cc1cc(Nc2ncc(F)c(C3CC3)n2)cc(-c2cnc(C3(O)CCC(C(=O)O)C(C)(C)C3)s2)c1 (centres unmarked) [Example 113A-57] | < 100 nM
Cc1cc(Nc2ncc(F)c(C3CC3)n2)cc(-c2cnc([C@@]3(O)CC[C@H](C(=O)O)C(C)(C)C3)s2)c1 [Example 113A-58] | < 100 nM
COCc1cc(Nc2nccc(C(F)(F)F)n2)cc(-c2cnc([C@@]3(O)CC[C@H](C(=O)O)C(C)(C)C3)s2)c1 [Example 113A-62] | < 100 nM
COC(=O)C1CCC(O)(c2ncc(-c3cc(Cl)cc(Nc4nccc(C(F)(F)F)n4)c3)s2)CC1(C)C (centres unmarked) [Example 113A-63] | 100 to 1000 nM
Cc1cc(Nc2nccc(C)n2)cc(-c2cnc(C3(O)CCC(C(=O)O)C(C)C3C)s2)c1 (centres unmarked) [Example 113A-66] | < 100 nM

Now from value to compound:

IC50 | Compound
< 100 nM | Cc1cc(Nc2ncc(Cl)c(C)n2)cc(-c2cnc([C@@]3(O)CC[C@H](C(=O)O)[C@H](C)C3)s2)c1 [Example 113A-27]
< 100 nM | Cc1cc(Nc2ncc(Cl)c(C)n2)cc(-c2cnc([C@]3(O)CC[C@@H](C(=O)O)[C@@H](C)C3)s2)c1 [Example 113A-28]
< 100 nM | CCOC(=O)C1CCC(O)(c2ncc(-c3cc(C)cc(Nc4nccc(CC)n4)c3)s2)CC1C (centres unmarked) [Example 113A-31]
< 100 nM | Cc1cc(Nc2ncc(F)c(C3CC3)n2)cc(-c2cnc([C@@]3(O)CC[C@H](C(=O)O)[C@H](C)C3)s2)c1 [Example 113A-33]
< 100 nM | Cc1cc(Nc2ncc(F)c(C3CC3)n2)cc(-c2cnc([C@]3(O)CC[C@@H](C(=O)O)[C@@H](C)C3)s2)c1 [Example 113A-34]
< 100 nM | Cc1cc(Nc2nccc(OC(C)C)n2)cc(-c2cnc([C@]3(O)CC[C@@H](C(=O)O)[C@@H](C)C3)s2)c1 [Example 113A-35]
< 100 nM | COc1nc(Nc2cc(C)cc(-c3cnc([C@@]4(O)CC[C@H](C(=O)O)[C@H](C)C4)s3)c2)ncc1Cl [Example 113A-36]
< 100 nM | COc1nc(Nc2cc(C)cc(-c3cnc([C@]4(O)CC[C@@H](C(=O)O)[C@@H](C)C4)s3)c2)ncc1Cl [Example 113A-37]
< 100 nM | COCCOc1ccnc(Nc2cc(C)cc(-c3cnc(C4(O)CCC(C(=O)O)C(C)C4)s3)c2)n1 (centres unmarked) [Example 113A-38]
< 100 nM | COCCCOc1ccnc(Nc2cc(C)cc(-c3cnc(C4(O)CCC(C(=O)O)C(C)C4)s3)c2)n1 (centres unmarked) [Example 113A-40]
< 100 nM | COCc1cc(Nc2nccc(C(F)(F)F)n2)cc(-c2cnc(C3(O)CCC(C(=O)O)C(C)C3)s2)c1 (centres unmarked) [Example 113A-42]
< 100 nM | CCOC(=O)C1CCC(O)(c2ncc(-c3cc(C)cc(Nc4nccc(OCCOC)n4)c3)s2)CC1C (centres unmarked) [Example 113A-43]
< 100 nM | CCOC(=O)C1CCC(O)(c2ncc(-c3cc(C)cc(Nc4nccc(OCCCOC)n4)c3)s2)CC1C (centres unmarked) [Example 113A-47]
< 100 nM | CCc1ccnc(Nc2cc(C)cc(-c3cnc([C@@]4(O)CC[C@H](C(=O)O)C(C)(C)C4)s3)c2)n1 [Example 113A-49]
< 100 nM | COC(=O)[C@H]1CC[C@](O)(c2ncc(-c3cc(C)cc(Nc4nccc(C#N)n4)c3)s2)CC1(C)C [Example 113A-50]
